BigSolDB 2.1

CC(C)N1C(=O)N(c2ccccc2)CSC1=NC(C)(C)C
solubility (mole fraction)
Details | 273.15 K | 278.15 K | 283.15 K | 288.15 K | 293.15 K | 298.15 K | 303.15 K | 308.15 K | 313.15 K | 318.15 K
in DMF | 0.0306 | 0.0389 | 0.0493 | 0.0608 | 0.0725 | 0.0871 | 0.104 | 0.122 | 0.141 | 0.162
in acetone | 0.03 | 0.0361 | 0.0427 | 0.0504 | 0.0593 | 0.0699 | 0.0814 | 0.096 | 0.114 | 0.134
in acetonitrile | 0.00534 | 0.00774 | 0.0101 | 0.0133 | 0.0171 | 0.0219 | 0.0284 | 0.0354 | 0.0448 | 0.0564
in ethanol | 0.00539 | 0.007 | 0.00917 | 0.0116 | 0.0146 | 0.0182 | 0.0228 | 0.0276 | 0.0342 | 0.0425
in ethyl acetate | 0.0372 | 0.0465 | 0.0561 | 0.0679 | 0.0815 | 0.0971 | 0.116 | 0.136 | 0.16 | 0.187
in isopropanol | 0.00586 | 0.00785 | 0.0103 | 0.0131 | 0.0165 | 0.0207 | 0.0254 | 0.031 | 0.0376 | 0.0454
in methanol | 0.00377 | 0.00497 | 0.0064 | 0.00797 | 0.00998 | 0.0123 | 0.0154 | 0.0184 | 0.0225 | 0.0272
in n-butanol | 0.00627 | 0.00908 | 0.0127 | 0.0167 | 0.0218 | 0.0281 | 0.0364 | 0.045 | 0.0577 | 0.0714
in n-octanol | 0.00824 | 0.0114 | 0.0152 | 0.0197 | 0.0251 | 0.0321 | 0.0404 | 0.0505 | 0.063 | 0.0789
in n-propanol | 0.00564 | 0.00798 | 0.011 | 0.0148 | 0.019 | 0.0254 | 0.0323 | 0.0414 | 0.0528 | 0.0668
in toluene | 0.053 | 0.0651 | 0.0782 | 0.0924 | 0.11 | 0.128 | 0.15 | 0.172 | 0.198 | 0.227
in water | 2.84e-05 | 3.48e-05 | 4.18e-05 | 5.08e-05 | 6.05e-05 | 7.26e-05 | 8.54e-05 | 0.000101 | 0.00012 | 0.000144
